How the values were obtained:
Test in all cases: relative viability (nuclei count vs DMSO), 5 days (fraction); higher = more cells survive
Ponatinib + Lapatinib = compound: Cc1ccc(C(=O)Nc2ccc(CN3CCN(C)CC3)c(C(F)(F)F)c2)cc1C#Cc1cnc2cccnn12 [Ponatinib] + CS(=O)(=O)CCNCc1ccc(-c2ccc3ncnc(Nc4ccc(OCc5cccc(F)c5)c(Cl)c4)c3c2)o1 [Lapatinib] (partner 2 µM)
Outline: (§1)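 Dosing by pin tool came one day after lung cancer cell lines were seeded in 1536-well plates, using either one drug or a fixed anchor-drug dose plus five library-drug doses (not always all listed) in √10 steps. After 5 days, nuclei were counted on 4× images. Relative viability is treated-well nuclei count divided by vehicle-well nuclei count, and values are medians of duplicate plates.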

Ponatinib + Pictilisib = compound: Cc1ccc(C(=O)Nc2ccc(CN3CCN(C)CC3)c(C(F)(F)F)c2)cc1C#Cc1cnc2cccnn12 [Ponatinib] + CS(=O)(=O)N1CCN(Cc2cc3nc(-c4cccc5[nH]ncc45)nc(N4CCOCC4)c3s2)CC1 [Pictilisib] (partner 1 µM)
Outline: as §1

Pazopanib + Lapatinib = compound: Cc1ccc(Nc2nccc(N(C)c3ccc4c(C)n(C)nc4c3)n2)cc1S(N)(=O)=O [Pazopanib] + CS(=O)(=O)CCNCc1ccc(-c2ccc3ncnc(Nc4ccc(OCc5cccc(F)c5)c(Cl)c4)c3c2)o1 [Lapatinib] (partner 2 µM)
Outline: as §1

Pazopanib + Alpelisib = compound: Cc1ccc(Nc2nccc(N(C)c3ccc4c(C)n(C)nc4c3)n2)cc1S(N)(=O)=O [Pazopanib] + Cc1nc(NC(=O)N2CCC[C@H]2C(N)=O)sc1-c1ccnc(C(C)(C)C(F)(F)F)c1 [Alpelisib] (partner 2 µM)
Outline: as §1

Row | Cell Line | relative viability (Ponatinib + Lapatinib; first compound 0.002 µM) | relative viability (Ponatinib + Lapatinib; first compound 0.006325 µM) | relative viability (Ponatinib + Lapatinib; first compound 0.06325 µM) | relative viability (Ponatinib + Lapatinib; first compound 0.2 µM) | relative viability (Ponatinib + Pictilisib; first compound 0.002 µM) | relative viability (Ponatinib + Pictilisib; first compound 0.006325 µM) | relative viability (Ponatinib + Pictilisib; first compound 0.06325 µM) | relative viability (Ponatinib + Pictilisib; first compound 0.2 µM) | relative viability (Pazopanib + Lapatinib; first compound 0.01 µM) | relative viability (Pazopanib + Lapatinib; first compound 0.03162 µM) | relative viability (Pazopanib + Lapatinib; first compound 0.1 µM) | relative viability (Pazopanib + Lapatinib; first compound 0.3162 µM) | relative viability (Pazopanib + Lapatinib; first compound 1 µM) | relative viability (Pazopanib + Alpelisib; first compound 0.01 µM) | relative viability (Pazopanib + Alpelisib; first compound 0.03162 µM) | relative viability (Pazopanib + Alpelisib; first compound 0.1 µM) | relative viability (Pazopanib + Alpelisib; first compound 0.3162 µM) | relative viability (Pazopanib + Alpelisib; first compound 1 µM)
1 | NCI-H2087 | 0.708 | 0.781 | 0.876 | 0.672 | 0.879 | 0.831 | 0.933 | 0.787 | 1.09 | 0.988 | 0.99 | 1.15 | 1.02 | 1.08 | 1.14 | 1.22 | 0.979 | 1.06
2 | LK-2 | 0.82 | 0.861 | 0.696 | 0.54 | 0.589 | 0.555 | 0.411 | 0.446 | 0.764 | 0.804 | 0.959 | 1 | 0.952 | 0.816 | 0.996 | 1.03 | 1.05 | 0.843
3 | NCI-H1437 | 0.742 | 0.848 | 0.885 | 0.758 | 0.445 | 0.479 | 0.495 | 0.406 | 0.919 | 0.877 | 0.823 | 0.815 | 0.785 | 0.938 | 1.02 | 0.964 | 0.938 | 1.05
4 | COR-L23 | 0.79 | 0.931 | 0.914 | 0.781 | 0.768 | 0.753 | 1.04 | 0.703 | 0.966 | 1.07 | 1.06 | 1.2 | 1 | 0.752 | 0.957 | 0.993 | 0.925 | 0.717
5 | ABC-1 | 1.1 | 1.17 | 1.2 | 0.864 | 0.826 | 0.78 | 0.884 | 0.658 | – | 1.32 | 1.37 | 0.91 | 1.27 | 0.859 | 1.1 | 0.984 | 1.1 | 1.03
6 | PC-14 | 0.313 | 0.363 | 0.384 | 0.386 | 0.637 | 0.691 | 0.794 | 0.702 | 0.305 | 0.295 | 0.304 | 0.379 | 0.45 | 0.883 | 0.996 | 0.959 | 0.934 | 0.935
7 | A549 | 0.946 | 1.03 | 1.05 | 0.88 | 0.527 | 0.645 | 0.608 | 0.401 | 0.967 | 0.977 | 1.07 | 1.1 | 0.914 | 0.798 | 0.685 | 0.828 | 0.746 | 1.01
8 | A-427 | 1.05 | 0.96 | 1.05 | 0.98 | 0.691 | 0.756 | 0.529 | 0.531 | 0.992 | 1.07 | 1 | 1.06 | 1.22 | 1.07 | 1.13 | 1.09 | 1.06 | 1.03
9 | NCI-H1792 | 0.854 | 0.85 | 0.92 | 0.847 | 0.241 | 0.347 | 0.388 | 0.284 | – | 0.863 | 0.918 | 0.847 | 0.823 | – | 0.703 | 0.748 | 0.69 | 0.69
10 | LCLC-97TM1 | – | 1 | – | 0.786 | – | 0.243 | – | 0.221 | – | 0.613 | 0.974 | 1.52 | 0.918 | – | 0.236 | 0.272 | 0.234 | 0.243
11 | NCI-H1703 | 0.989 | 0.787 | 0.339 | 0.313 | 0.278 | 0.228 | 0.223 | 0.205 | 1.09 | 0.629 | 0.41 | 0.354 | 0.286 | 0.338 | 0.293 | 0.216 | 0.279 | 0.278
12 | LCLC-103H | – | – | – | – | 0.543 | 0.592 | 0.636 | 0.572 | – | – | – | – | – | 0.782 | 0.823 | 1.03 | 0.973 | 1.06
13 | RERF-LC-KJ | 0.8 | 0.882 | 0.881 | 0.8 | 0.618 | 0.582 | 0.781 | 0.68 | 0.761 | 0.758 | 0.815 | 0.734 | 0.799 | 0.808 | 0.928 | 0.906 | 0.806 | 0.935
14 | BEN | 0.503 | 0.509 | 0.721 | 0.628 | 0.544 | 0.62 | 0.601 | 0.462 | – | 0.574 | 0.721 | 0.808 | 0.774 | 0.845 | 1.04 | 1.1 | 1.02 | 0.988
15 | NCI-H1666 | 0.619 | 0.666 | 0.796 | 0.773 | 0.534 | 0.436 | 0.48 | 0.702 | 0.644 | 0.677 | 0.718 | 0.763 | 0.972 | 1.07 | 1.06 | 1.02 | 0.954 | 1.16
16 | ChaGo-K-1 | – | – | – | – | 0.59 | 0.917 | 0.879 | 0.644 | – | – | – | – | – | – | – | – | – | –
17 | NCI-H441 | – | – | – | – | 0.608 | 0.48 | 0.49 | 0.313 | – | – | – | – | – | 0.71 | 0.73 | 0.987 | 0.655 | 0.728

From the supplement of paper PMC10307832
